Reference: US20150105252A1, “SUBSTITUTED PYRAZOLES AS HERBICIDES” (E I DU PONT DE NEMOURS AND COMPANY, priority 2013, published 2015)

Tests used:
crabgrass, large [1] = assay: Test A preemergence; assay type: in vivo, Digitaria sanguinalis; conditions: preemergence
In short: (§1)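 Growth medium: loam soil blended with sand. Preemergence treatment used a directed soil spray right after planting; postemergence treatment targeted seedlings at one to two leaves (2–10 cm height). Response was judged by eye relative to untreated plants about 10 days later on a 0–100 control scale.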

foxtail, giant [2] = assay: Test A preemergence; assay type: in vivo, Setaria faberii; conditions: preemergence
In short: as §1

velvetleaf [3] = assay: Test A preemergence; assay type: in vivo, Abutilon theophrasti; conditions: preemergence
In short: as §1

foxtail, giant [4] = assay: Test A postemergence; assay type: in vivo, Setaria faberii
In short: as §1

morningglory = assay: Test A postemergence; assay type: in vivo, Ipomoea spp.
In short: as §1

rice = assay: Test B flood; assay type: in vivo, Oryza sativa; conditions: 250 g ai/ha, visual rating on 0 to 100 scale (0 no effect, 100 complete control), 13 to 15 days
In short: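 Greenhouse assay lasting 13 to 15 days. Treatment was into water flooding pots 3 cm deep, at the 2-leaf stage, with that level sustained afterwards. Scores compare treated with control plants visually, 100 denoting complete control and 0 no effect; a dash marks no test result.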

lambsquarters = assay: Test C preemergence; assay type: in vivo, Chenopodium album; conditions: for Plant response rating (scale of 0 to 100), Lambsquarters: 250 g ai/ha
In short: (§2)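 Visual rating, 0–100 scale (0 no effect, 100 complete control), vs untreated controls after 13–15 d greenhouse. Pre: seeds in loam/sand, treated at sowing. Post: plants in peat-based mix, 1- to 4-leaf (2–18 cm). Solvent + surfactant formulation, non-phytotoxic.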

nutsedge, yellow = assay: Test C preemergence; assay type: in vivo, Cyperus esculentus; conditions: for Plant response rating (scale of 0 to 100), Nutsedge, Yellow: 250 g ai/ha
In short: as §2

barnyardgrass = assay: Test C preemergence; assay type: in vivo, Echinochloa crus-galli; conditions: for Plant response rating (scale of 0 to 100), Barnyardgrass: 250 g ai/ha
In short: as §2

waterhemp = assay: Test C preemergence; assay type: in vivo, Amaranthus rudis; conditions: for Plant response rating (scale of 0 to 100), Waterhemp: 250 g ai/ha
In short: as §2

galium = assay: Test C postemergence; assay type: in vivo, Galium aparine; conditions: for Plant response rating (scale of 0 to 100 where 0 is no effect and 100 is complete control), Galium: 31 g ai/ha, visually evaluated after 13 to 15 days; for Galium plant response rating / Plant response rating, Galium: postemergence; for Galium plant response rating: 62 g ai/ha, scale 0 to 100
In short: as §2

corn = assay: Test C postemergence; assay type: in vivo, Zea mays; conditions: for Plant response rating (scale of 0 to 100 where 0 is no effect and 100 is complete control), Corn: 31 g ai/ha, visually evaluated after 13 to 15 days; for Corn plant response rating / Plant response rating, Corn: postemergence; for Corn plant response rating: 62 g ai/ha, scale 0 to 100
In short: as §2

crabgrass, large [5] = assay: Test C postemergence; assay type: in vivo, Digitaria sanguinalis; conditions: for Plant response rating (scale of 0 to 100 where 0 is no effect and 100 is complete control), Crabgrass, Large: 31 g ai/ha, visually evaluated after 13 to 15 days; for Crabgrass, Large plant response rating / Plant response rating, Crabgrass, Large: postemergence; for Crabgrass, Large plant response rating: 62 g ai/ha, scale 0 to 100
In short: as §2

velvetleaf [6] = assay: Test C postemergence; assay type: in vivo, Abutilon theophrasti; conditions: for Plant response rating (scale of 0 to 100 where 0 is no effect and 100 is complete control), Velvetleaf: 31 g ai/ha, visually evaluated after 13 to 15 days; for Velvetleaf plant response rating / Plant response rating, Velvetleaf: postemergence; for Velvetleaf plant response rating: 62 g ai/ha, scale 0 to 100
In short: as §2

[7] = 125 g ai/ha, visual injury, 0 to 100 scale, approx. 10 days
[8] = 500 g ai/ha, visual injury after approx. 10 days, 0 to 100 scale (0 no effect, 100 complete control)
[9] = Postemergence, 500 g ai/ha, visual rating after approx. 10 days, 0 to 100 scale (0 no effect, 100 complete control)
[10] = postemergence, 125 g ai/ha, about 10 days, visual rating on 0 to 100 scale (0 no effect, 100 complete control)
[11] = preemergence, 31 g ai/ha, visual rating, scale 0 to 100 (0 no effect, 100 complete control), 13 to 15 days
[12] = preemergence, 62 g ai/ha, 13 to 15 days, scale 0 to 100, 0 = no effect, 100 = complete control
[13] = preemergence, 125 g ai/ha, scale 0 to 100, 0 is no effect, 100 is complete control
[14] = preemergence, 31 g ai/ha, scale 0 to 100 (0 no effect, 100 complete control), 13 to 15 days
[15] = 250 g ai/ha, scale 0 to 100 (0 no effect, 100 complete control)
[16] = 125 g ai/ha, scale 0 to 100, 0 no effect, 100 complete control
[17] = Preemergence, 16 g ai/ha, scale 0 to 100

CCc1cc(C(=O)NC2CC2)nn1Cc1ccnc(OC(F)F)c1 [Compound 98]
Crabgrass, Large plant response rating (crabgrass, large [1]; [7]): 100
Crabgrass, Large plant response rating (crabgrass, large [1]; [8]): 100
Foxtail, Giant plant response rating (foxtail, giant [2]; [7]): 100
Foxtail, Giant plant response rating (foxtail, giant [2]; [8]): 100
Velvetleaf plant response rating (velvetleaf [3]; [7]): 100
Velvetleaf plant response rating (velvetleaf [3]; [8]): 100
Foxtail, Giant plant response rating (foxtail, giant [4]; [9]): 90
Foxtail, Giant plant response rating (foxtail, giant [4]; [10]): 90
Morningglory plant response rating (morningglory; [9]): 90
Morningglory plant response rating (morningglory; [10]): 90
Plant response rating, Rice (rice): 0
Plant response rating (scale of 0 to 100), Lambsquarters (lambsquarters; Preemergence): 100
Lambsquarters plant response rating (lambsquarters; [11]): 100
Plant response rating, Lambsquarters (lambsquarters; [12]): 100
Lambsquarters plant response rating (lambsquarters; [13]): 100
Plant response rating (scale of 0 to 100), Nutsedge, Yellow (nutsedge, yellow; Preemergence): 95
Nutsedge, Yellow plant response rating (nutsedge, yellow; [11]): 30
Plant response rating, Nutsedge, Yellow (nutsedge, yellow; [12]): 75
Plant response rating (scale of 0 to 100), Barnyardgrass (barnyardgrass; Preemergence): 100
Barnyardgrass plant response rating (barnyardgrass; [14]): 30
Plant response rating, Barnyardgrass (barnyardgrass; [12]): 100
Barnyardgrass plant response rating (barnyardgrass; [13]): 100
Plant response rating (scale of 0 to 100), Waterhemp (waterhemp; Preemergence): 100
Waterhemp plant response rating (waterhemp; [11]): 98
Plant response rating, Waterhemp (waterhemp; [12]): 98
Waterhemp plant response rating (waterhemp; [13]): 100
Plant response rating (scale of 0 to 100 where 0 is no effect and 100 is complete control), Galium (galium; Postemergence): 50
Galium plant response rating (galium): 55
Plant response rating, Galium (galium; [15]): 90
Plant response rating, Galium (galium; [16]): 65
Plant response rating (scale of 0 to 100 where 0 is no effect and 100 is complete control), Corn (corn; Postemergence): 5
Corn plant response rating (corn): 5
Plant response rating, Corn (corn; [15]): 10
Plant response rating, Corn (corn; [16]): 5
Plant response rating (scale of 0 to 100 where 0 is no effect and 100 is complete control), Crabgrass, Large (crabgrass, large [5]; Postemergence): 10
Crabgrass, Large plant response rating (crabgrass, large [5]): 15
Plant response rating, Crabgrass, Large (crabgrass, large [5]; [15]): 50
Plant response rating, Crabgrass, Large (crabgrass, large [5]; [16]): 45
Plant response rating (scale of 0 to 100 where 0 is no effect and 100 is complete control), Velvetleaf (velvetleaf [6]; Postemergence): 15
Velvetleaf plant response rating (velvetleaf [6]): 20
Plant response rating, Velvetleaf (velvetleaf [6]; [15]): 50
Plant response rating, Velvetleaf (velvetleaf [6]; [16]): 20

CCc1cc(C(=O)NOC(C)C)nn1Cc1ccnc(C(F)(F)F)c1 [Compound 101]
Crabgrass, Large plant response rating (crabgrass, large [1]; [7]): 100
Crabgrass, Large plant response rating (crabgrass, large [1]; [8]): 100
Foxtail, Giant plant response rating (foxtail, giant [2]; [7]): 100
Foxtail, Giant plant response rating (foxtail, giant [2]; [8]): 100
Velvetleaf plant response rating (velvetleaf [3]; [7]): 40
Velvetleaf plant response rating (velvetleaf [3]; [8]): 100
Foxtail, Giant plant response rating (foxtail, giant [4]; [9]): 90
Foxtail, Giant plant response rating (foxtail, giant [4]; [10]): 80
Morningglory plant response rating (morningglory; [9]): 100
Morningglory plant response rating (morningglory; [10]): 100
Plant response rating, Rice (rice): 0
Plant response rating, Lambsquarters (lambsquarters; [17]): 85
Lambsquarters plant response rating (lambsquarters; [11]): 85
Plant response rating, Lambsquarters (lambsquarters; [12]): 85
Lambsquarters plant response rating (lambsquarters; [13]): 95
Plant response rating, Nutsedge, Yellow (nutsedge, yellow; [17]): 5
Nutsedge, Yellow plant response rating (nutsedge, yellow; [11]): 5
Plant response rating, Nutsedge, Yellow (nutsedge, yellow; [12]): 25
Nutsedge, Yellow plant response rating (nutsedge, yellow; [13]): 75
Plant response rating, Barnyardgrass (barnyardgrass; [17]): 5
Barnyardgrass plant response rating (barnyardgrass; [14]): 75
Plant response rating, Barnyardgrass (barnyardgrass; [12]): 100
Barnyardgrass plant response rating (barnyardgrass; [13]): 100
Plant response rating, Waterhemp (waterhemp; [17]): 85
Waterhemp plant response rating (waterhemp; [11]): 95
Plant response rating, Waterhemp (waterhemp; [12]): 100
Waterhemp plant response rating (waterhemp; [13]): 100
Plant response rating (scale of 0 to 100), Galium (galium; Postemergence, 16 g ai/ha): 20
Plant response rating (scale of 0 to 100 where 0 is no effect and 100 is complete control), Galium (galium; Postemergence): 35
Galium plant response rating (galium): 50
Plant response rating, Galium (galium; [16]): 55
Plant response rating (scale of 0 to 100), Corn (corn; Postemergence, 16 g ai/ha): 5
Plant response rating (scale of 0 to 100 where 0 is no effect and 100 is complete control), Corn (corn; Postemergence): 10
Corn plant response rating (corn): 10
Plant response rating, Corn (corn; [16]): 60
Plant response rating (scale of 0 to 100), Crabgrass, Large (crabgrass, large [5]; Postemergence, 16 g ai/ha): 5
Plant response rating (scale of 0 to 100 where 0 is no effect and 100 is complete control), Crabgrass, Large (crabgrass, large [5]; Postemergence): 5
Crabgrass, Large plant response rating (crabgrass, large [5]): 15
Plant response rating, Crabgrass, Large (crabgrass, large [5]; [16]): 20
Plant response rating (scale of 0 to 100), Velvetleaf (velvetleaf [6]; Postemergence, 16 g ai/ha): 10
Plant response rating (scale of 0 to 100 where 0 is no effect and 100 is complete control), Velvetleaf (velvetleaf [6]; Postemergence): 15
Velvetleaf plant response rating (velvetleaf [6]): 25
Plant response rating, Velvetleaf (velvetleaf [6]; [16]): 30

CCc1cc(C(=O)NC(C)C)nn1Cc1ccnc(C(F)(F)F)c1 [Compound 103]
Crabgrass, Large plant response rating (crabgrass, large [1]; [7]): 100
Crabgrass, Large plant response rating (crabgrass, large [1]; [8]): 100
Foxtail, Giant plant response rating (foxtail, giant [2]; [7]): 100
Foxtail, Giant plant response rating (foxtail, giant [2]; [8]): 100
Velvetleaf plant response rating (velvetleaf [3]; [7]): 100
Velvetleaf plant response rating (velvetleaf [3]; [8]): 100
Foxtail, Giant plant response rating (foxtail, giant [4]; [9]): 90
Foxtail, Giant plant response rating (foxtail, giant [4]; [10]): 90
Morningglory plant response rating (morningglory; [9]): 100
Morningglory plant response rating (morningglory; [10]): 90
Plant response rating, Rice (rice): 50
Plant response rating (scale of 0 to 100), Lambsquarters (lambsquarters; Preemergence): 100
Lambsquarters plant response rating (lambsquarters; [11]): 100
Plant response rating, Lambsquarters (lambsquarters; [12]): 100
Lambsquarters plant response rating (lambsquarters; [13]): 100
Plant response rating (scale of 0 to 100), Nutsedge, Yellow (nutsedge, yellow; Preemergence): 95
Nutsedge, Yellow plant response rating (nutsedge, yellow; [11]): 40
Plant response rating, Nutsedge, Yellow (nutsedge, yellow; [12]): 80
Nutsedge, Yellow plant response rating (nutsedge, yellow; [13]): 85
Plant response rating (scale of 0 to 100), Barnyardgrass (barnyardgrass; Preemergence): 100
Barnyardgrass plant response rating (barnyardgrass; [14]): 100
Plant response rating, Barnyardgrass (barnyardgrass; [12]): 100
Barnyardgrass plant response rating (barnyardgrass; [13]): 100
Plant response rating (scale of 0 to 100), Waterhemp (waterhemp; Preemergence): 100
Waterhemp plant response rating (waterhemp; [11]): 100
Plant response rating, Waterhemp (waterhemp; [12]): 100
Waterhemp plant response rating (waterhemp; [13]): 100
Plant response rating (scale of 0 to 100 where 0 is no effect and 100 is complete control), Galium (galium; Postemergence): 50
Galium plant response rating (galium): 70
Plant response rating, Galium (galium; [15]): 80
Plant response rating, Galium (galium; [16]): 75
Plant response rating (scale of 0 to 100 where 0 is no effect and 100 is complete control), Corn (corn; Postemergence): 10
Corn plant response rating (corn): 15
Plant response rating, Corn (corn; [15]): 95
Plant response rating, Corn (corn; [16]): 35
Plant response rating (scale of 0 to 100 where 0 is no effect and 100 is complete control), Crabgrass, Large (crabgrass, large [5]; Postemergence): 10
Crabgrass, Large plant response rating (crabgrass, large [5]): 15
Plant response rating, Crabgrass, Large (crabgrass, large [5]; [15]): 85
Plant response rating, Crabgrass, Large (crabgrass, large [5]; [16]): 35
Plant response rating (scale of 0 to 100 where 0 is no effect and 100 is complete control), Velvetleaf (velvetleaf [6]; Postemergence): 25
Velvetleaf plant response rating (velvetleaf [6]): 40
Plant response rating, Velvetleaf (velvetleaf [6]; [15]): 55
Plant response rating, Velvetleaf (velvetleaf [6]; [16]): 45
